# Experimental data: patent US20180318291A1, “USE OF AMINOTHIAZOLE MYD88 SPECIFIC INHIBITOR TJM2010-5” (WUHAN INNAMUNE PHARMACEUTICAL INC. LTD., priority 2015, published 2018)
# Columns and labels:
# NOD mice = test: diabetes mellitus type I model in NOD mice; type: in vivo; conditions: 150 mg/kg/d intraperitoneal, observed 30 weeks, FIG. 4
# Protocol: 1. Experimental groups: MyD88KO NOD mice, MyD88KO/+NOD mice, NOD mice TJM2010-5 treatment group.
# 2. Treatment group: Provide intraperitoneal injection of TJM2010-5 dissolved in 0.5% CMC of 150 mg/kg/d on the day before antigen injection, and on day 0 to day 3, and day 5, 7, 9, 11, 13 and 15 day after injection.
# 3. Provide intraperitoneal injection of mycobacterium antigen to mice in each group and monitor the concentration constantly.
# 4. Feed in clean level and observe for 30 weeks, and take the tail venous blood to test the non-fasting blood-glucose. The standard for diabetes modeling is obtaining the blood-glucose no less than 22 mmol/L for 2 times successively.
# mice with pyohemia = test: pyohemia / septicopyemia lethal experiment (cecal ligation and puncture); type: in vivo; conditions: CLP; 250 mg/kg intragastric 4 times every 12 h; FIG. 15(b)
# Protocol: Part two: Observe the effect of MyD88 inhibitor on mortality of mice with pyohemia. The mice will be randomly divided into: sham-operation group, model group, MyD88 inhibitor treatment group. Except for the mice in sham-operation group that only receive post-operative suture, the mice in pyohemia model group and MyD88 inhibitor treatment group are provided with the cecal ligation and puncture (CLP), to copy the pyohemia mice model. At 1 h after operation, apply intragastric administration of 0.5% CMC 200 μL or TJM2010-5 of 250 mg/kg (200 μL) for 4 times successively, and each time lasts for 12 h. After operation, observe the survival rate of mice in each group every 12 h, and for 72 h successively.
# Balb/c mice = test: AOM/DSS chronic colitis and colitis-associated colorectal cancer (CAC) model; type: in vivo
# Protocol: Construct the chronic colitis and colitis-associated colorectal cancer (CAC) model: apply intraperitoneal injection of 10 mg/Kg azoxymethane (AOM) (Sigma-Aldrich Chemical) to 40Balb/c mice, and start to execute three cycles of feeding of drinking water containing 2.5% of dextran sodium sulfate (DSS) (MP Biomedicals) 7 days later, and each cycle consists one week of feeding DSS water and two weeks of feeding common fresh water. Then, observe them in the following 10 weeks. […] 100% of mice in this group have colorectal cancer.
# TJM2010-5 treatment group: Provide intragastric administration of TJM2010-5 of 50 mg/kg to 20 Balb/c mice in two days before providing the treatment mentioned above, and observe them in ten weeks.
# Mechanism study: Take the specimen of serum, colon, and spleen etc. from 4 mice in each group 2 weeks and 7 weeks later to detect the infiltration of IRAK4 and inflammatory cytokines, macrophage and Gr-1^highCD11b^high MDSC, and the proportion of LPMCs (lamina propria mononuclearcells) F4/80^+CD11b^+ macrophage etc.
# The experimental procedure is the same with that of the experiment on effect of TJM2010-5 in preventing and treating colitis and colorectal cancer: Apply intragastric administration of TJM2010-1, TJM2010-2, TJM2010-3, TJM2010-4, TJM2010-5 of 50 mg/kg to 20 Balb/c mice in each group of totally 6 groups, and then, observe them in the following 10 weeks. The mice with colitis and colorectal cancer in the group corresponding to TJM2010-5 and TJM2010-1, TJM2010-2, TJM2010-3, TJM2010-4, TJM2010-5 accounts 0%, 71.52%, 42.28%, 60.19%, 81.34% respectively; 2. TJM2010-5 can 100% prevent and cure chronic colitis and prevent the colorectal cancer incurred by chronic colitis. […] Other aminothiazole compound has no or little such curative effect.
# [1] = test system: C57bl/6 mice lymphocytes with Bal b/c DC; test: mixed lymphocyte culture, T cell proliferation after CpG stimulated DC activation; type: cell-based; conditions: 10, 20, 40 μM, third day, FIG. 8
# Protocol: 1. Take the thigh bone of Bal b/c mice, separate the bone marrow cell and add the GMS-CSF and IL-4 cytokines to cultivate marrow-derived DC.
# 2. Cultivate them until the sixth day, and dissociate the cells to remove immature DC. Conduct centrifugation and suspend them with 1640 medium.
# 3. Add mitomycin (to let the final concentration up to 50 μg/ml), and conduct water bath at 37° C. for 15 min Wash in 1640 medium and count.
# 4. Take the spleen of C57bl/6 mice, separate splenic lymphocytes with separating medium of mice lymphocytes and count.
# 5. Take the splenic lymphocytes of C57bl/6 mice and label CFSE.
# 6. Mix DC derived from Bal b/c and C57bl/6 mice lymphocytes for the mixed lymphocyte culture. And the grouped as follows:
# Control group: Add CPG other than TJM2010-5 in the process of mixed lymphocyte culture.
# Experiment group 1: Add CPG and TJM2010-5 in the process of mixed lymphocyte culture, where, the added TJM2010-5 is 10 μM.
# Experiment group 2: Add CPG and TJM2010-5 in the process of mixed lymphocyte culture, where, the added TJM2010-5 is 20 μM.
# Experiment group 3: Add CPG and TJM2010-5 in the process of mixed lymphocyte culture, where, the added TJM2010-5 is 40 μM.
# 1. Cultivate them until the third day, collect cells and detect the proliferation of C57bl/6 mice lymphopoiesis with flow cytometer.
# DC = test: CD80/CD86 expression on bone marrow DC by flow cytometry; type: cell-based, mice
# Protocol: 1. Derive the bone marrow cell from the BALB/c mice administrated with TJM2010-5, destruct the red blood cell, and place them into the RPMI1640 medium with the concentration of 2×10^6/ML (adding GM-CSF of 10 ng/ml, IL-4 of 10 ng/ml);
# 2. Remove the suspension cell 48 hours later, and collect the suspension and anchorage-dependent cell on day 6.
# 3. Place DCs into […] of TJM2010-5 for cultivating for 1 hour, add necrotic myocardium supernate, LPS (200 ng/ml), Poly I:C (20 mg/ml), CpG (10 mg/ml) to cultivate the cells for 12 hours.
# 4. Add the flow antibody FITC to label anti-CD80, CD86, and conduct detection with machine.
# DC: Place the cells into a 48-pore plate, the number of cells is 1×10^6/pore, and 1 ml of medium system is added to each pore. Firstly, add TJM2010-5 of different concentration gradients to pre-incubate the cells for 2 h, then, add the LPS to get the final concentration of 1 ug/ml, and then incubate them in CO2 incubator at 37° C. for one night (12 h).
# Add the flow antibody FITC to label anti-CD80, CD86, and conduct detection with machine.
smiles,measurement,setting,value
"O=C(CCN1CCN(Cc2ccccc2)CC1)Nc1nc(-c2ccccc2)cs1 [TJM2010-5, 3-(4-benzylpiperazin-1-yl)-N-(4-phenylthiazol-2-yl) propanamide]",incidence rate of diabetes mellitus type I,NOD mice,equivalent to that of MyD88KO homozygote group
same,death time and final mortality of pyohemia in mice,mice with pyohemia,significantly improve
same,colitis finding,Balb/c mice; 50 mg/kg intragastric,No apparent colitis
same,mice with colitis and colorectal cancer,"Balb/c mice; 50 mg/kg intragastric, 20 Balb/c mice per group, observed 10 weeks",0%
same,weights vs untreated group,"Balb/c mice; 50 mg/kg intragastric, FIG. 12A",obviously higher than that of untreated group
same,survival rate vs control group,"Balb/c mice; 50 mg/kg intragastric, FIG. 12B",obviously higher than that of control group
same,mice having colitis and colorectal cancer,Balb/c mice; FIG. 12C,no mice
same,activation of IRAK4,Balb/c mice; FIG. 13A,inhibit
same,p-IRAK4,Balb/c mice; FIG. 13A,reduce
same,activation of NF-κB p65,Balb/c mice; FIG. 13B,inhibit
same,generation of G-CSF vs control group,Balb/c mice; FIG. 13C,obviously lower than those of control group
same,generation of IL-6 vs control group,Balb/c mice; FIG. 13C,obviously lower than those of control group
same,generation of MIP-1β vs control group,Balb/c mice; FIG. 13C,obviously lower than those of control group
same,generation of TGF-β1 vs control group,Balb/c mice; FIG. 13C,obviously lower than those of control group
same,generation of TNF-α vs control group,Balb/c mice; FIG. 13C,obviously lower than those of control group
same,level of IL-6 mRNA vs control group,Balb/c mice; FIG. 13D,obviously lower than those of control group
same,level of TGF-β1 mRNA vs control group,Balb/c mice; FIG. 13D,obviously lower than those of control group
same,infiltration of macrophage,Balb/c mice; FIG. 14,reduce
same,F4/80+CD11b+ tumor-associated macrophage in LPMCs,Balb/c mice; FIG. 14B,reduces
same,infiltration of Gr-1highCD11bhigh MDSC (myeloid suppressor cells),Balb/c mice; FIG. 14C,reduce
same,expression of IL-6,Balb/c mice; FIG. 14D,reduce
same,prevention and cure of chronic colitis and prevention of colorectal cancer,Balb/c mice; intragastric,100%
same,proliferation in T cells with increasing TJM2010-5,[1],reduces
same,"up-regulation of costimulatory molecules CD80/CD86 incurred by LPS, CpG",DC,inhibit up-regulation
same,expression of CD80 on DC surface,"DC; DC, 2 h pre-incubation, LPS 1 ug/ml, 12 h, FIG. 3c",concentration-dependent inhibition
same,"CD80 expression on DC stimulated by LPS, CPG, cardiac tissue homogenate",DC; FIG. 3b,down-regulate
